Measurements from ChEMBL document CHEMBL1146627, “Synthesis and structure-activity relationships of 1-arylmethyl-3-(1-methyl-2-amino)ethyl-5-aryl-6-methyluracils as antagonists of the human GnRH Receptor” (Bioorg Med Chem Lett, 2003).

Molecular target: T1, Gonadotropin-releasing hormone receptor (Homo sapiens, UniProt P30968)
T1 sequence (P30968 whole entry): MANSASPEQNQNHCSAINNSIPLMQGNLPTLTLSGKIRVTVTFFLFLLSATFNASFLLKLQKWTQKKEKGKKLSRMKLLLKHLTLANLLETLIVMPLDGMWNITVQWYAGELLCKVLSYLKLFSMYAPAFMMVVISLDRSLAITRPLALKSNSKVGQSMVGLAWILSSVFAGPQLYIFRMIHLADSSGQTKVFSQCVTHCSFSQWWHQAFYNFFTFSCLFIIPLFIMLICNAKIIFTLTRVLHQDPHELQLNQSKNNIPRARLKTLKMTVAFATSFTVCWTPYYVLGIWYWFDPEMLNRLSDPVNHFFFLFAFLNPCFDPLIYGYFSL
Assay: Binding affinity towards human gonadotropin-releasing hormone receptor expressed in HEK293 cells
Type: cell-based

Question: Which Ki does the source give for `COc1cccc(-c2c(C)n(Cc3c(F)cccc3F)c(=O)n([C@H](C)CNCc3ccc(F)cc3)c2=O)c1` here?
Answer: 250 nM

Question: Which Ki does the source give for `COc1cccc(-c2c(C)n(Cc3c(F)cccc3F)c(=O)n(C[C@H](C)N(C)CCc3ccccn3)c2=O)c1` here?
Answer: 5 nM

Question: With `COc1cccc(-c2c(C)n(Cc3c(F)cccc3F)c(=O)n([C@H](C)CNCc3cccc(F)c3)c2=O)c1` as the compound, how does the Ki read?
Answer: 85 nM

Question: With `COc1cccc(-c2c(C)n(Cc3c(F)cccc3F)c(=O)n([C@H](C)CNCc3ccccc3F)c2=O)c1` as the compound, how does the Ki read?
Answer: 90 nM

Question: For `COc1cccc(-c2c(C)n(Cc3c(F)cccc3F)c(=O)n([C@@H](C)CNCC(C)C)c2=O)c1`, which Ki is on record?
Answer: 1200 nM

Question: Which Ki does the source give for `COc1cccc(-c2c(C)n(Cc3c(F)cccc3F)c(=O)n([C@H](C)CNC3CCCC3)c2=O)c1` here?
Answer: 430 nM

Question: With `COc1cccc(-c2c(C)n(Cc3c(F)cccc3F)c(=O)n([C@@H](C)CNCc3ccccc3F)c2=O)c1` as the compound, how does the Ki read?
Answer: 550 nM

Question: How did the Ki turn out when `COc1cccc(CNC[C@@H](C)n2c(=O)c(-c3cccc(OC)c3)c(C)n(Cc3c(F)cccc3F)c2=O)c1` was run?
Answer: 20 nM

Question: `COc1cccc(-c2c(C)n(Cc3c(F)cccc3F)c(=O)n([C@@H](C)CN(C)CC3CC3)c2=O)c1` was tested. Which Ki did it give?
Answer: 7000 nM

Question: `COc1cccc(-c2c(C)n(Cc3c(F)cccc3F)c(=O)n([C@@H](C)CN(C)Cc3ccccc3)c2=O)c1` was tested. Which Ki did it give?
Answer: 2000 nM

Question: Which Ki does the source give for `COc1cccc(-c2c(C)n(Cc3c(F)cccc3F)c(=O)n([C@@H](C)CNC3CCCC3)c2=O)c1` here?
Answer: 950 nM

Question: `COc1cccc(-c2c(C)n(Cc3c(F)cccc3F)c(=O)n([C@H](C)CNCC(C)C)c2=O)c1` was tested. Which Ki did it give?
Answer: 190 nM

Question: For `COc1cccc(-c2c(C)n(Cc3c(F)cccc3F)c(=O)n([C@H](C)CN(C)Cc3ccccc3)c2=O)c1`, which Ki is on record?
Answer: 150 nM

Question: For `COc1cccc(-c2c(C)n(Cc3c(F)cccc3F)c(=O)n([C@@H](C)CNCC3CC3)c2=O)c1`, which Ki is on record?
Answer: 1600 nM

Question: `COc1cccc(-c2c(C)n(Cc3c(F)cccc3F)c(=O)n(C3CCNC3)c2=O)c1` (stereo unspecified) was tested. Which Ki did it give?
Answer: 15000 nM

Question: `COc1cccc(-c2c(C)n(Cc3c(F)cccc3F)c(=O)n(C3CCN(Cc4ccccc4)C3)c2=O)c1` (stereo unspecified) was tested. Which Ki did it give?
Answer: 280 nM

Question: For `COc1cccc(-c2c(C)n(Cc3c(F)cccc3F)c(=O)n([C@H](C)CNCC3CC3)c2=O)c1`, which Ki is on record?
Answer: 780 nM

Question: For `COc1cccc(-c2c(C)n(Cc3c(F)cccc3F)c(=O)n([C@H](C)CNCc3ccccc3)c2=O)c1`, which Ki is on record?
Answer: 75 nM

Question: `COc1cccc(-c2c(C)n(Cc3c(F)cccc3F)c(=O)n([C@H](C)CNCc3ccccc3C)c2=O)c1` was tested. Which Ki did it give?
Answer: 70 nM

Question: Which Ki does the source give for `COc1cccc(-c2c(C)n(Cc3c(F)cccc3F)c(=O)n([C@@H](C)CNCc3ccccc3C)c2=O)c1` here?
Answer: 400 nM

Question: How did the Ki turn out when `COc1cccc(-c2c(C)n(Cc3c(F)cccc3F)c(=O)n([C@H](C)CN(C)CC3CC3)c2=O)c1` was run?
Answer: 590 nM

Question: With `COc1cccc(-c2c(C)n(Cc3c(F)cccc3F)c(=O)n([C@H](C)CN(C)CCc3ccccn3)c2=O)c1` as the compound, how does the Ki read?
Answer: 20 nM

Question: For `COc1cccc(-c2c(C)n(Cc3c(F)cccc3F)c(=O)n(C3CCN(CCc4ccccn4)C3)c2=O)c1` (stereo unspecified), which Ki is on record?
Answer: 8300 nM

Question: For `COc1ccc(CNC[C@@H](C)n2c(=O)c(-c3cccc(OC)c3)c(C)n(Cc3c(F)cccc3F)c2=O)cc1`, which Ki is on record?
Answer: 720 nM

Question: For `COc1cccc(-c2c(C)n(Cc3c(F)cccc3F)c(=O)n([C@@H](C)CN(C)CCc3ccccn3)c2=O)c1`, which Ki is on record?
Answer: 1800 nM

Question: `COc1cccc(-c2c(C)n(Cc3c(F)cccc3F)c(=O)n([C@@H](C)CNCc3ccccc3)c2=O)c1` was tested. Which Ki did it give?
Answer: 370 nM
